These results are taken from patent US9890152B2 (Genentech, Inc., priority 2012, dated 2018).

Structures are written as SMILES.

In the test the target is T1, EGFR del746-750 T790M (Homo sapiens, UniProt P00533, DEL746-750/T790M).
T1 construct: purchased Carna Biosciences 08-528
T1 sequence (P00533 with tags, fused parts or gaps DEL746-750/T790M limits assumed): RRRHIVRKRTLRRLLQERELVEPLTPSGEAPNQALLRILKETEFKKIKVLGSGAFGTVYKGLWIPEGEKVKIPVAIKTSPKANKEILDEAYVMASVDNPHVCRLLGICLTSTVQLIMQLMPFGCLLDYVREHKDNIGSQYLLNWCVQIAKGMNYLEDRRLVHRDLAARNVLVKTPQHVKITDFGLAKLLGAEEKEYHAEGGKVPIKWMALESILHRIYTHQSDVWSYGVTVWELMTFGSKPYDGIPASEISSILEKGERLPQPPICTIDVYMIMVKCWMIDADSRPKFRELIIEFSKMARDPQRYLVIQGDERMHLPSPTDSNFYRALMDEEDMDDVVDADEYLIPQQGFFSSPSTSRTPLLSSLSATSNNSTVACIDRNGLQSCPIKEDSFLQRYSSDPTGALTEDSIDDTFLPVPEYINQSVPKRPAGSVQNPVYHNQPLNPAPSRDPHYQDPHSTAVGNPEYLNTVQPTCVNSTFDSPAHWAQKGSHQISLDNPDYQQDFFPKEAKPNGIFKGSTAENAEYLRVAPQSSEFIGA
Kind of test: EGFR del746-750 T790M biochemical assay (Caliper mobility shift). As to conditions: 5 μM ATP, 30 min, room temperature; apparent Ki (Morrison) converted by Cheng-Prusoff, Km of ATP 2.1 μM; read-out: EGFR(T790M/d746-750) Ki.
Consider `CS[C@H]1CCN(c2nccc(Nc3cc4c(cn3)nc(CO)n4C(C)C)n2)C[C@H]1F` (racemic) [Example 622, (±)-{6-[2-(cis-3-Fluoro-4-methylsulfanylpiperidin-1-yl)pyrimidin-4-ylamino]-1-isopropyl-1H-imidazo[4,5-c]pyridin-2-yl}methanol], for which the Ki worked out at 170 nM.
Then `CCCC(C)n1c(CO)nc2cnc(Nc3ccnc(-c4cnn(S(=O)(=O)C5CC5)c4)n3)cc21` (stereo not shown) [Example 265, (6-(2-(1-(Cyclopropylsulfonyl)-1H-pyrazol-4-yl)pyrimidin-4-ylamino)-1-(pentan-2-yl)-1H-imidazo[4,5-c]pyridin-2-yl)methanol], with 5.63 nM; and `Cc1nc2cnc(Nc3ccnc(N4CCC(S(C)(=O)=O)CC4)n3)cc2n1C(C)C` [Example 545, (1-Isopropyl-2-methyl-1H-imidazo[4,5-c]pyridin-6-yl)-[2-(4-methanesulfonylpiperidin-1-yl)pyrimidin-4-yl]amine], with 501 nM.
The same measure for `Cc1nc2cnc(Nc3ccnc(-c4cnoc4)n3)cc2n1C(C)C` [Example 366]: 14.7 nM; for `CC(C)n1c(CO)nc2cnc(Nc3ccnc(C4=CCC(O)CC4)n3)cc21` (stereo not shown) [Example 624, 4-(4-((2-(hydroxymethyl)-1-isopropyl-1H-imidazo[4,5-c]pyridin-6-yl)amino)pyrimidin-2-yl)cyclohex-3-enol]: 67.8 nM; for `C[C@H](n1c(CO)nc2cnc(Nc3ccnc(N4CC[C@H](O)[C@H](F)C4)n3)cc21)C(F)(F)F` [Example 667]: 5.65 nM.
As to `CO[C@H]1CCN(c2nccc(Nc3cc4c(cn3)nc(C)n4C(C)C)n2)C[C@H]1F` (racemic) [Example 524, (±)-[2-((cis)-3-Fluoro-4-methoxypiperidin-1-yl)pyrimidin-4-yl]-(1-isopropyl-2-methyl-1H-imidazo[4,5-c]pyridin-6-yl)amine], the Ki is 50.9 nM.
The same measure for `CS[C@H]1CCN(c2nccc(Nc3cc4c(cn3)nc(C)n4C(C)C)n2)C[C@H]1F` (racemic) [Example 617, [2-(±)-(cis-3-Fluoro-4-methylsulfanylpiperidin-1-yl)pyrimidin-4-yl]-(1-isopropyl-2-methyl-1H-imidazo[4,5-c]pyridin-6-yl)amine]: 115 nM; for `CCC(C)n1cc(C(=O)NC2CCOCC2)c2cnc(Nc3ccnc(N4CC[C@@H](O)[C@@H](F)C4)n3)cc21` (single isomer, unassigned) [Example 324]: 2.39 nM; for `Cc1cn[nH]c1-c1cn(C(C)C)c2cc(Nc3ccnc(N4CCC(O)C(C)(C)C4)n3)ncc12` (stereo not shown) [Example 347, 1-(4-((1-Isopropyl-3-(4-methyl-1H-pyrazol-5-yl)-1H-pyrrolo[3,2-c]pyridin-6-yl)amino)pyrimidin-2-yl)-3,3-dimethylpiperidin-4-ol]: 20.5 nM.
`COC1CCN(c2nccc(Nc3cc4c(cn3)c(-c3cnn(CCO)c3)cn4C(C)C)n2)CC1` [Example 402, 2-(4-(1-isopropyl-6-((2-(4-methoxypiperidin-1-yl)pyrimidin-4-yl)amino)-1H-pyrrolo[3,2-c]pyridin-3-yl)-1H-pyrazol-1-yl)ethanol]: the Ki was 0.84 nM.
The same measure for `CO[C@H]1CCN(c2nccc(Nc3cc4c(cn3)nc(C)n4C(C)C)n2)C[C@H]1F` (racemic) [Example 607, [2-((3RS,4SR)-3-Fluoro-4-methoxypiperidin-1-yl)pyrimidin-4-yl]-(1-isopropyl-2-methyl-1H-imidazo[4,5-c]pyridin-6-yl)amine]: 41.1 nM; for `CO[C@H]1[C@@H]2CC[C@H]1CN(c1nccc(Nc3cc4c(cn3)nc(CO)n4C(C)C)n1)C2` [Example 273, (1-Isopropyl-6-((2-((1R,5R,8r)-8-methoxy-3-azabicyclo[3.2.1]octan-3-yl)pyrimidin-4-yl)amino)-1H-imidazo[4,5-c]pyridin-2-yl)methanol]: 23.7 nM.
